Consider eleven compounds from ChEMBL document CHEMBL5465560, “Selectivity Literature for EUbOPEN Chemogenomic Library” (2024).

Test [1] deals with Ephrin type-A receptor 5 (Homo sapiens) (UniProt P54756). Briefly: Selectivity interaction (SelectScreen profiling (Invitrogen)) EUB0000607a EPHA5. Conditions: at 2 µM.
Test [2] has as its target T1, Interleukin-1 receptor-associated kinase 4 (Homo sapiens) (UniProt Q9NWZ3).
T1 sequence (whole entry): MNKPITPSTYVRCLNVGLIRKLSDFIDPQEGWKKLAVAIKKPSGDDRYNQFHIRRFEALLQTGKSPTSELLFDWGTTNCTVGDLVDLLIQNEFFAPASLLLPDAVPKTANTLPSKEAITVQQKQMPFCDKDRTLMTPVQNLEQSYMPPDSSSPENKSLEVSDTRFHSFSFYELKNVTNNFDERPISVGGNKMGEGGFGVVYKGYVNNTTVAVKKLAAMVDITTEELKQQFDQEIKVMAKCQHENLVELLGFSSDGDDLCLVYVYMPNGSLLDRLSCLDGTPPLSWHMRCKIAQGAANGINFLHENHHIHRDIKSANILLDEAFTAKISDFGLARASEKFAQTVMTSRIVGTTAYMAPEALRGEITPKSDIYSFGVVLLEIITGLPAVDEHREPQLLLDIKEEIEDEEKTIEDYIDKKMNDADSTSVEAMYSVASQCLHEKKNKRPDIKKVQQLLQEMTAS
Conditions: at 10 µM.

Test [3] has as its target Ribosomal protein S6 kinase alpha-5 (Homo sapiens) (UniProt O75582). The experiment in a line: Selectivity interaction (KinomeScan (DiscoverX)) EUB0000666a RPS6KA5. The settings on record: at 10 µM.
In test [4] the target is Cyclin-dependent kinase 13 (Homo sapiens, UniProt Q14004). Briefly: Selectivity interaction (KinomeScan (DiscoverX)) EUB0000229b CDK13. Conditions: at 10 µM.
Test [5] has as its target Protein kinase C delta type (Homo sapiens) (UniProt Q05655). The experiment in a line: Selectivity interaction (KinomeScan (DiscoverX)) EUB0000229b PRKCD. The settings on record: at 10 µM.
Test [6] addresses Tyrosine-protein kinase SYK (Homo sapiens, UniProt P43405). The experiment in a line: Selectivity interaction (KinomeScan (DiscoverX)) EUB0000655a SYK. The settings on record: at 10 µM.
Test [7] addresses Tyrosine-protein kinase ABL1 (Homo sapiens, UniProt P00519). The experiment in a line: Selectivity interaction (ActivX KiNativ screen (ex vivo kinase selectivity in human PBMCs)) EUB0001619a ABL1. Type of test: cell-based. Conditions: PBMC, at 1 µM.
Test [8] addresses T2, Beta-adrenergic receptor kinase 1 (Homo sapiens) (UniProt P25098).
T2 sequence (whole entry): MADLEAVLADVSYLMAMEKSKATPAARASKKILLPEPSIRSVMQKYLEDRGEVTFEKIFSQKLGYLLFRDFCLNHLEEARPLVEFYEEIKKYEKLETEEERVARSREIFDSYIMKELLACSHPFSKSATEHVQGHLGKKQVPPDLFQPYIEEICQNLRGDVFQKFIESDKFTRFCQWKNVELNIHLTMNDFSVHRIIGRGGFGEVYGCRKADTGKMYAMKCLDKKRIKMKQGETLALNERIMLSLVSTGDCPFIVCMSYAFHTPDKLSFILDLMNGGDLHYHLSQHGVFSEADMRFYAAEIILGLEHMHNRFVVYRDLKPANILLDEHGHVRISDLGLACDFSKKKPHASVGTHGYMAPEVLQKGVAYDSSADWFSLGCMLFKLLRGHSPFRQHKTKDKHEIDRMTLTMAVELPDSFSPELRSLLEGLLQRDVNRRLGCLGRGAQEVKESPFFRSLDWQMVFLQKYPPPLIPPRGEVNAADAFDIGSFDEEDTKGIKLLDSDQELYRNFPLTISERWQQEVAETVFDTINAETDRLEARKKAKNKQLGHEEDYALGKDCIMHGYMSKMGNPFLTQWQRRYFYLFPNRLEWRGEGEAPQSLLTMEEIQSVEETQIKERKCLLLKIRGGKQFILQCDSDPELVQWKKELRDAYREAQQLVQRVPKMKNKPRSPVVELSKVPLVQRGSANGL
The experiment in a line: Selectivity interaction (ActivX KiNativ screen (ex vivo kinase selectivity in human PBMCs)) EUB0001619a ADRBK1. The class given is cell-based. Conditions: PBMC, at 1 µM.

In test [9] the target is Dual specificity mitogen-activated protein kinase kinase 1 (Homo sapiens, UniProt Q02750). Briefly: Selectivity interaction (ActivX KiNativ screen (ex vivo kinase selectivity in human PBMCs)) EUB0001619a MAP2K1. Type of test: cell-based. Conditions: PBMC, at 1 µM.
Sequence of Dual specificity mitogen-activated protein kinase kinase 1 (Q02750 whole entry): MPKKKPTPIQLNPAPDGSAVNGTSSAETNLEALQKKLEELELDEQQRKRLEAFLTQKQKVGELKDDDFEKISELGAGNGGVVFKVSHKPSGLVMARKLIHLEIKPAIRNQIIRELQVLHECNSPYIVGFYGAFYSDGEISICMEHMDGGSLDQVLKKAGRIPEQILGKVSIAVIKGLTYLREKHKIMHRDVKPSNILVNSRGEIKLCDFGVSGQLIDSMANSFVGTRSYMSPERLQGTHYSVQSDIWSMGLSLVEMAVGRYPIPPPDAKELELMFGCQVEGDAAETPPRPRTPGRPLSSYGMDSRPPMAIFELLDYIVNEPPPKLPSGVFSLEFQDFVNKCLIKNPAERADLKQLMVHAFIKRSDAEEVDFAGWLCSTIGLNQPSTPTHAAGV
Test [10] deals with T3, Mitogen-activated protein kinase kinase kinase 7 (Homo sapiens) (UniProt O43318).
T3 sequence (whole entry): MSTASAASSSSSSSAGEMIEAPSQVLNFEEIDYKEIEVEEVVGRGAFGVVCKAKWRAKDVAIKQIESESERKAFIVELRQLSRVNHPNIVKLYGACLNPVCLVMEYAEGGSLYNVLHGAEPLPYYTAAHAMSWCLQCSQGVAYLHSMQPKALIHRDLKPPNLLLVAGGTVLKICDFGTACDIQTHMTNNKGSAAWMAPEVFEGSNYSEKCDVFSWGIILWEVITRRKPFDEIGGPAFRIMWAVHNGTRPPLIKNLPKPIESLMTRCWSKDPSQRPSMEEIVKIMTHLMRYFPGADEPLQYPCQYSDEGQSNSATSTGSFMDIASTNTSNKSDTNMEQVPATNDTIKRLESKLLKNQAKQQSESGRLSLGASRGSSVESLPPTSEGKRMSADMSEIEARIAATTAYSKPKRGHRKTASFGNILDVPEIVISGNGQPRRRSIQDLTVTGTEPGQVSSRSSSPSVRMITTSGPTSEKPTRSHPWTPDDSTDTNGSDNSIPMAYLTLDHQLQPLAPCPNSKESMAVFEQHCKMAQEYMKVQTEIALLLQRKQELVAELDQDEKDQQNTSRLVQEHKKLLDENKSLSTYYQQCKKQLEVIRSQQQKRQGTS
Briefly: Selectivity interaction (Kinase panel (literature)) EUB0001199aCl MAP3K7. Conditions: at 1 µM.

Test [11] concerns the target Cyclin-dependent kinase 5/CDK5 activator 1 (Homo sapiens) (UniProt Q00535+Q15078). The experiment in a line: Selectivity interaction (Kinase panel (Invitrogen)) EUB0000639a CDK5. The class given is protein-complex assay. Conditions: at 200 nM.
For test [12], the target named is Tyrosine-protein kinase CSK (Homo sapiens) (UniProt P41240). The experiment in a line: Selectivity interaction (Millipore kinase profiler) EUB0000124b CSK. The settings on record: at 10 µM.
For test [13], the target named is Cyclin-dependent kinase 4 (Homo sapiens, UniProt P11802). The experiment in a line: Selectivity interaction (KinomeScan (DiscoverX)) EUB0001049a CDK4. The settings on record: at 1 µM.
Test [14] concerns the target Proto-oncogene tyrosine-protein kinase ROS (Homo sapiens) (UniProt P08922). The experiment in a line: Selectivity interaction (KinomeScan (DiscoverX)) EUB0001049a ROS1. Conditions: at 1 µM.
Test [15] deals with ATPase family AAA domain-containing protein 2B (Homo sapiens) (UniProt Q9ULI0). Briefly: Selectivity interaction (Human bromodomain panel (DSF assay)) EUB0000233b ATAD2B.

SMILES strings stand for the structures.

Sequence of Tyrosine-protein kinase ABL1 (P00519 whole entry): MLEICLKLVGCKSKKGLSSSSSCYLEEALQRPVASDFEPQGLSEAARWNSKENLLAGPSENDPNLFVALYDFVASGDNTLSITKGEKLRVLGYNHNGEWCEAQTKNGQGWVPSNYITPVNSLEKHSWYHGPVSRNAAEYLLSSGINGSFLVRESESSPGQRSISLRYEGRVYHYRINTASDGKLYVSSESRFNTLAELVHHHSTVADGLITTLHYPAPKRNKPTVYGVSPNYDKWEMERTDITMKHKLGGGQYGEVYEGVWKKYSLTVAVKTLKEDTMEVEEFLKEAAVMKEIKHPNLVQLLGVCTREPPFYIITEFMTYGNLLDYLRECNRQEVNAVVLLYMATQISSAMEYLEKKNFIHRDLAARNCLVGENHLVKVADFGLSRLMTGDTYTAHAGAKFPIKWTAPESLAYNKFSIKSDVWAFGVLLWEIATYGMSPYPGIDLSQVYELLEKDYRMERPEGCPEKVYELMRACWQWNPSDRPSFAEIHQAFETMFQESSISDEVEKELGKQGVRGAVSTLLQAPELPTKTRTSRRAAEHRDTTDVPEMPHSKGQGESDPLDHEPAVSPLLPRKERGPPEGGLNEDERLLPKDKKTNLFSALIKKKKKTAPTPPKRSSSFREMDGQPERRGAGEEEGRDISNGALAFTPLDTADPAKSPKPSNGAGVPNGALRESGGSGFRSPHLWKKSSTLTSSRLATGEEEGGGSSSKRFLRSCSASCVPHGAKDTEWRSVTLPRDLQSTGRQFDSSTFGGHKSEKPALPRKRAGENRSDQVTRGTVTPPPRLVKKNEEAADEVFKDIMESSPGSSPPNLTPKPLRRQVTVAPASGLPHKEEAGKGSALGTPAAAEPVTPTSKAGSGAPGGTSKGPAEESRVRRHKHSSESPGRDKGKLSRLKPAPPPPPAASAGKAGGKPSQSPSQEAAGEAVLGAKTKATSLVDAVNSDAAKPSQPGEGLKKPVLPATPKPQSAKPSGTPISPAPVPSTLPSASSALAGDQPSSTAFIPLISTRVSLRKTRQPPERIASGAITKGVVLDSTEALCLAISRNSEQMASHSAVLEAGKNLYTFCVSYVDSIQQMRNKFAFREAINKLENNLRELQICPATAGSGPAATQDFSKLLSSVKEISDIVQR
Sequence of Proto-oncogene tyrosine-protein kinase ROS (Homo sapiens) (P08922 whole entry, the tested form may be a part): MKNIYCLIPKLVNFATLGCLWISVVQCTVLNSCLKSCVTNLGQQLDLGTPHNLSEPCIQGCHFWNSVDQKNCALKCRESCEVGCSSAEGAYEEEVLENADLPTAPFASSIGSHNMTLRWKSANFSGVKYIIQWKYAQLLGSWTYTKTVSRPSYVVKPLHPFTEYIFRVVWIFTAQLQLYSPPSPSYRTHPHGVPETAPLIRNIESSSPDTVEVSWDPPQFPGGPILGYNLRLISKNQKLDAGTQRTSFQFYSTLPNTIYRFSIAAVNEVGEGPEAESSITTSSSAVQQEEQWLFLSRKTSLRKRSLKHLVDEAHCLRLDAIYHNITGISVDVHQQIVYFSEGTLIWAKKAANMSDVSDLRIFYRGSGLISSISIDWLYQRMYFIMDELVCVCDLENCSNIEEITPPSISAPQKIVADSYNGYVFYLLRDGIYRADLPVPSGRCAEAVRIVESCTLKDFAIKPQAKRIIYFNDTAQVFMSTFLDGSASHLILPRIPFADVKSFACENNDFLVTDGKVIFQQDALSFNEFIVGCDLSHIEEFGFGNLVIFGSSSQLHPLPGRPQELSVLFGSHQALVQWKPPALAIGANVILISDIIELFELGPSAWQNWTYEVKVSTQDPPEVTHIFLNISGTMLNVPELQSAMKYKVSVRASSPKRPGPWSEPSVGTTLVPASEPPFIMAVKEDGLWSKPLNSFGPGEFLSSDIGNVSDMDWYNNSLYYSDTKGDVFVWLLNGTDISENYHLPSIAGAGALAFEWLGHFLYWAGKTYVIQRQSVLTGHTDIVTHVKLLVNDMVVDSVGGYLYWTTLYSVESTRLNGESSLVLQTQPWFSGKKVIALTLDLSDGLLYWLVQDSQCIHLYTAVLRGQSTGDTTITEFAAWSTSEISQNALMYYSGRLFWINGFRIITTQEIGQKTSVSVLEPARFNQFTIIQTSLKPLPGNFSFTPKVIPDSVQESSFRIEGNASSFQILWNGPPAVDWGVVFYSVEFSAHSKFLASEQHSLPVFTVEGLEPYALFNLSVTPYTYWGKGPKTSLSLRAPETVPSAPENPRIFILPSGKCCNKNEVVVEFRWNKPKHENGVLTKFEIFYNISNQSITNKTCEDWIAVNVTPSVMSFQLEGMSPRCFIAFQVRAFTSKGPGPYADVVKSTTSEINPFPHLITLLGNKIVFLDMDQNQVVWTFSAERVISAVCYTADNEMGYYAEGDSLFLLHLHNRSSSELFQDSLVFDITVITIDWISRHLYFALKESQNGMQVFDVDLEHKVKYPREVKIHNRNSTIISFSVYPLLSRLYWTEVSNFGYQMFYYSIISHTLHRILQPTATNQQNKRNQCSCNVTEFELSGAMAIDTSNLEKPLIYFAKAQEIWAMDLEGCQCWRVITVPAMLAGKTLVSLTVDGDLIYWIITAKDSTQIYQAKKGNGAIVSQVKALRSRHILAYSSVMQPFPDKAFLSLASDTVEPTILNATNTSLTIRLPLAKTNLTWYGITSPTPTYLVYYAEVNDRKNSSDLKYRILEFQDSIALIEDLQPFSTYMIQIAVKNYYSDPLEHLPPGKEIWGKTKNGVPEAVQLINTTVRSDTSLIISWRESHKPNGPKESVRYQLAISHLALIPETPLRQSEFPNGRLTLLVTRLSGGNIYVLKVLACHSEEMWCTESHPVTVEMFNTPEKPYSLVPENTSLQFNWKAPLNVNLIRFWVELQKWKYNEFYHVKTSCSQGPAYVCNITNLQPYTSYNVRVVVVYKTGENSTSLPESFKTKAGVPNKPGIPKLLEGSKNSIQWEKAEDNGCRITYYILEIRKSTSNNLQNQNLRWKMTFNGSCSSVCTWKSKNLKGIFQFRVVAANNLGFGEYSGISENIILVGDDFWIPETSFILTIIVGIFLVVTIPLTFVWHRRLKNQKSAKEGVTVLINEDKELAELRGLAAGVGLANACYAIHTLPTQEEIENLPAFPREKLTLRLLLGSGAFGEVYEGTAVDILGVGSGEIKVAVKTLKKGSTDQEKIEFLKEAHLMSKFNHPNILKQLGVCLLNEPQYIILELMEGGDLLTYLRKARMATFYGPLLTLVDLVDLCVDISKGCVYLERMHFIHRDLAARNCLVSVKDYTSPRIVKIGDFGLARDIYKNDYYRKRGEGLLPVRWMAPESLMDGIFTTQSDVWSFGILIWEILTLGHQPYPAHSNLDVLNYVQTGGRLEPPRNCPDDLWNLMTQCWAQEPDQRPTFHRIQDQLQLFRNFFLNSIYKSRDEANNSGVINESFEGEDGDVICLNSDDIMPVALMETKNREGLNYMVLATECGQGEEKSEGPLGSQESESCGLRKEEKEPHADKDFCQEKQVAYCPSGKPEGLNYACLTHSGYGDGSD
Sequence of Ephrin type-A receptor 5 (Homo sapiens) (P54756 whole entry): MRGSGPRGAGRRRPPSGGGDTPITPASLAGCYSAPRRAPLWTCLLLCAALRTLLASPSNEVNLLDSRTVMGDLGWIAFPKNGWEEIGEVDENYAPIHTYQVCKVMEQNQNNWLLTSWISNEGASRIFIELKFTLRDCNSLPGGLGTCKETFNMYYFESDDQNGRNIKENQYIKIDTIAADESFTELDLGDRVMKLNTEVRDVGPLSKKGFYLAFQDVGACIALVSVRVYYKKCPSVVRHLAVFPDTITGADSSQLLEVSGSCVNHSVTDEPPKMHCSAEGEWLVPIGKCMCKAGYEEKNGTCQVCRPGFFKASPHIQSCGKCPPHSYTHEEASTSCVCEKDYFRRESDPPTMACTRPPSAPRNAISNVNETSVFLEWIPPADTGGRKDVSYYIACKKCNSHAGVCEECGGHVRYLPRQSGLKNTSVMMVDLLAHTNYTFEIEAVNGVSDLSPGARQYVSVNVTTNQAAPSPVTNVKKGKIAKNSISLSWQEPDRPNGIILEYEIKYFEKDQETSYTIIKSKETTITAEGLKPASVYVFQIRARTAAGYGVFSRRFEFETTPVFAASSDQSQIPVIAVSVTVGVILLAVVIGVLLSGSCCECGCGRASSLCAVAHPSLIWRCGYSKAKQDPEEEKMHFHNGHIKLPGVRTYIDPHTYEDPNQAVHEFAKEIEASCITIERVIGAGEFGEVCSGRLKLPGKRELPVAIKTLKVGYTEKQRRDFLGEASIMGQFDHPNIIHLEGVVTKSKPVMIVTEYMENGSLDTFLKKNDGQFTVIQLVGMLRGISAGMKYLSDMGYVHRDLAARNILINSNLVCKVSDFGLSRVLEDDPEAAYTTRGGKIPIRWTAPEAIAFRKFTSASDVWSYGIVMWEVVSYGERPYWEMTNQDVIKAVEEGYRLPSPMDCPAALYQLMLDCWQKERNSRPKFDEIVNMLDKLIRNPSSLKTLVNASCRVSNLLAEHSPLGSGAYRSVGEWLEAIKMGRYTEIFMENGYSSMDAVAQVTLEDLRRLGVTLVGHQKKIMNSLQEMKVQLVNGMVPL

As for `CNC(=O)Nc1ccc(-c2nc(N3CC4CCC(C3)O4)c3cnn(C4CCC5(CC4)OCCO5)c3n2)cc1`, in test [1], the % of inhibition was found to be 2%.

`Cc1cc([C@@H](C)Nc2ccccc2C(=O)O)c2nc(N3CCOCC3)cc(=O)n2c1` [AZD-6482] registered a % of control in test [2] of 100%.

As to `O=C(NOC[C@H](O)CO)c1ccc(F)c(F)c1Nc1ccc(I)cc1F`, in test [3], the % of control was 87%.

Consider `COc1cc(N(C)c2ccnc3ccc(C(F)(F)F)cc23)cc(OC)c1OC`, for which the % binding in test [4] was 88%; in test [5], 95%.

For `CN(C)CCOc1ccc(-c2nc(-c3ccncc3)c(-c3ccc4c(c3)CC/C4=N\O)[nH]2)cc1`, in test [6], the % of control was found to be 100%.

Regarding `N#Cc1cccc(-c2c[nH]c3ncnc(N4CCOCC4)c23)c1`, the % of inhibition in test [7] was -53%; in test [8] it was -5%; in [9], 0%.

Turning to `CN1Cc2nccc(-c3cn(C)nc3-c3ccc(F)cc3)c2C1=O`, in [10], the % of inhibition turned out to be 3%.

As to `CC[C@@H]1[C@H](F)C(=O)N[C@@H]1COc1nccc2cc(C(N)=O)c(OC)cc12` [ZIMLOVISERTIB], the % of inhibition in test [11] was determined as 2.19%.

`CC(=O)Nc1cccc(-n2c(=O)n(C3CC3)c(=O)c3c(Nc4ccc(I)cc4F)n(C)c(=O)c(C)c32)c1` returned a % of control in test [12] of 97%.

For `COc1cc(Nc2nc(C)cc(-c3cnn4nc(OC)ccc34)n2)cc(C(F)(F)F)c1`, the % of control in test [13] amounted to 70%; in test [14], 91%.

`CN(C)CCCOc1ccc(-c2cc(NCCCn3cccn3)nc(S(C)(=O)=O)n2)cc1` yielded a dTM in test [15] of under 2 K.
